pIC50: −log10 of the molar value. Values after ≈ are worked out from the molar mass of the structure shown. Active and inactive are the calls of the source. The rule behind the calls is not given here.
Tests used:
[1] = Volume of distribution at steady state in ddY mouse at 1 mg/kg, iv by LC-MS/MS analysis; assay type: ADME, organism-based; conditions: in vivo, read-out: Vdss
[2] = Aqueous thermodynamic solubility of the compound at pH 6.8 measured after 4 hrs by HPLC-UV analysis; assay type: physicochemical; conditions: read-out: Therm_solubility
[3] = test system: Mus musculus; test: Analgesic activity against PSL-induced neuropathic pain mouse model assessed as reversal of thermal hyperalgesia at 1 mg/kg, po measured after 120 mins by plantar test; assay type: functional, organism-based
[4] = biological target: Sodium channel protein type 9 subunit alpha/beta-1/beta-2 (Mus musculus, UniProt Q62205); test: Inhibition of mouse Nav1.7/beta1/2 transfected in HEK293-A cells assessed as inhibition of channel current incubated for 5.5 mins by high-throughput electrophysiology system analysis; assay type: cell-based
[5] = test system: Mus musculus; test: Analgesic activity against PSL-induced neuropathic pain mouse model assessed as reversal of thermal hyperalgesia at 1 mg/kg, po measured after 240 mins by plantar test; assay type: functional, organism-based
[6] = Unbound fraction in mouse plasma; assay type: ADME, cell-free
[7] = biological target: Cytochrome P450 2D6 (Homo sapiens, UniProt P10635); test: Inhibition of CYP2D6 (unknown origin) at 10 uM; assay type: ADME
[8] = biological target: T1, Cytochrome P450 1A2 (Homo sapiens, UniProt P05177); test: Inhibition of CYP1A2 (unknown origin) at 10 uM; assay type: ADME
T1 sequence (P05177 whole entry): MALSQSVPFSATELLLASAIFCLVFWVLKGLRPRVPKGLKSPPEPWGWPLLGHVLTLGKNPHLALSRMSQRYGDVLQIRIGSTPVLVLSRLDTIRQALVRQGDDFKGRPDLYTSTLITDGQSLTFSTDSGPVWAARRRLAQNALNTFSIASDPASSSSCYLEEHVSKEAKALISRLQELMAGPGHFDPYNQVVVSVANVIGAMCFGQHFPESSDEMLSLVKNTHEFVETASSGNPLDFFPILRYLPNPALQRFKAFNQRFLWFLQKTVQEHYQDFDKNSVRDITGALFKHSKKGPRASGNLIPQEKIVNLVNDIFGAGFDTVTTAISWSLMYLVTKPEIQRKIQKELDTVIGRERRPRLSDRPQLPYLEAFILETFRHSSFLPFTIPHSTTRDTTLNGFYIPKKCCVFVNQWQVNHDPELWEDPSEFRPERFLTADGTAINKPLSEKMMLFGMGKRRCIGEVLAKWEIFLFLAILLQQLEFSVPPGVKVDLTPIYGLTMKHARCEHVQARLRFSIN

[9] = test system: Mus musculus; test: Analgesic activity against PSL-induced neuropathic pain mouse model assessed as reversal of thermal hyperalgesia at 1 mg/kg, po measured after 30 mins by plantar test; assay type: functional
[10] = Ratio of fCmax in ddY mouse plasma at 1 mg/kg, po to IC50 for inhibition of mouse Nav1.7/beta1/2 transfected in HEK293-A cells
[11] = Tmax in ddY mouse at 1 mg/kg, po by LC-MS/MS analysis; assay type: ADME, organism-based; conditions: in vivo
[12] = biological target: Cytochrome P450 3A4 (Homo sapiens, UniProt P08684); test: Inhibition of CYP3A4 (unknown origin) at 10 uM; assay type: ADME
[13] = biological target: Cytochrome P450 2C9 (Homo sapiens, UniProt P11712); test: Inhibition of CYP2C9 (unknown origin) at 10 uM; assay type: ADME
[14] = Half life in ddY mouse at 1 mg/kg, po by LC-MS/MS analysis; assay type: ADME, organism-based; conditions: in vivo
[15] = Selectivity ratio of IC50 for human Nav1.1/beta1/2 transfected in HEK293-A cells to IC50 for human Nav1.7/beta1/2 transfected in HEK293-A cells
[16] = 1-Octanol/PBS buffer distribution coefficient, log D of the compound at pH 7.4 by HPLC/LC-MS analysis; assay type: physicochemical
[17] = Cmax in ddY mouse at 1 mg/kg, po by LC-MS/MS analysis; assay type: ADME, organism-based; design: dose 1 mg/kg, route po; conditions: in vivo
[18] = biological target: Sodium channel protein type 9 subunit alpha/beta-1/beta-2 (Homo sapiens, UniProt Q15858); test: Inhibition of human Nav1.7/beta1/2 transfected in HEK293-A cells assessed as inhibition of channel current incubated for 5.5 mins by high-throughput electrophysiology system analysis; assay type: cell-based
[19] = Bioavailability in ddY mouse at 1 mg/kg, iv by LC-MS/MS analysis; assay type: ADME, organism-based; conditions: in vivo
[20] = biological target: hERG (KCNH2) (Homo sapiens, UniProt Q12809); test: Inhibition of hERG at 100 uM; assay type: toxicity
[21] = Glutathione reactivity in human liver microsome assessed as GSH adduct formation; assay type: ADME; conditions: microsomes
[22] = AUC(0 to 24 hrs) in ddY mouse at 1 mg/kg, po by LC-MS/MS analysis; assay type: ADME, organism-based; design: dose 1 mg/kg, route po; conditions: in vivo
[23] = biological target: Sodium channel protein type 1 subunit alpha/beta-1/beta-2 (Homo sapiens, UniProt P35498); test: Inhibition of human Nav1.1/beta1/2 transfected in HEK293-A cells assessed as inhibition of channel current incubated for 5.5 mins by high-throughput electrophysiology system analysis; assay type: toxicity, cell-based
[24] = Total body clearance in ddY mouse at 1 mg/kg, iv by LC-MS/MS analysis; assay type: ADME, organism-based; conditions: in vivo
[25] = test system: Mus musculus; test: Analgesic activity against PSL-induced neuropathic pain mouse model assessed as reversal of thermal hyperalgesia at 1 mg/kg, po measured after 60 mins by plantar test; assay type: functional, organism-based
[26] = biological target: Sodium channel protein type 5 subunit alpha/beta-1/beta-2 (Homo sapiens, UniProt Q14524); test: Inhibition of human Nav1.5/beta1/2 transfected in HEK293-A cells assessed as inhibition of channel current incubated for 5.5 mins by high-throughput electrophysiology system analysis; assay type: toxicity, cell-based
[27] = Selectivity ratio of IC50 for human Nav1.5/beta1/2 transfected in HEK293-A cells to IC50 for human Nav1.7/beta1/2 transfected in HEK293-A cells

Chain of hERG (KCNH2) (Q12809 whole entry): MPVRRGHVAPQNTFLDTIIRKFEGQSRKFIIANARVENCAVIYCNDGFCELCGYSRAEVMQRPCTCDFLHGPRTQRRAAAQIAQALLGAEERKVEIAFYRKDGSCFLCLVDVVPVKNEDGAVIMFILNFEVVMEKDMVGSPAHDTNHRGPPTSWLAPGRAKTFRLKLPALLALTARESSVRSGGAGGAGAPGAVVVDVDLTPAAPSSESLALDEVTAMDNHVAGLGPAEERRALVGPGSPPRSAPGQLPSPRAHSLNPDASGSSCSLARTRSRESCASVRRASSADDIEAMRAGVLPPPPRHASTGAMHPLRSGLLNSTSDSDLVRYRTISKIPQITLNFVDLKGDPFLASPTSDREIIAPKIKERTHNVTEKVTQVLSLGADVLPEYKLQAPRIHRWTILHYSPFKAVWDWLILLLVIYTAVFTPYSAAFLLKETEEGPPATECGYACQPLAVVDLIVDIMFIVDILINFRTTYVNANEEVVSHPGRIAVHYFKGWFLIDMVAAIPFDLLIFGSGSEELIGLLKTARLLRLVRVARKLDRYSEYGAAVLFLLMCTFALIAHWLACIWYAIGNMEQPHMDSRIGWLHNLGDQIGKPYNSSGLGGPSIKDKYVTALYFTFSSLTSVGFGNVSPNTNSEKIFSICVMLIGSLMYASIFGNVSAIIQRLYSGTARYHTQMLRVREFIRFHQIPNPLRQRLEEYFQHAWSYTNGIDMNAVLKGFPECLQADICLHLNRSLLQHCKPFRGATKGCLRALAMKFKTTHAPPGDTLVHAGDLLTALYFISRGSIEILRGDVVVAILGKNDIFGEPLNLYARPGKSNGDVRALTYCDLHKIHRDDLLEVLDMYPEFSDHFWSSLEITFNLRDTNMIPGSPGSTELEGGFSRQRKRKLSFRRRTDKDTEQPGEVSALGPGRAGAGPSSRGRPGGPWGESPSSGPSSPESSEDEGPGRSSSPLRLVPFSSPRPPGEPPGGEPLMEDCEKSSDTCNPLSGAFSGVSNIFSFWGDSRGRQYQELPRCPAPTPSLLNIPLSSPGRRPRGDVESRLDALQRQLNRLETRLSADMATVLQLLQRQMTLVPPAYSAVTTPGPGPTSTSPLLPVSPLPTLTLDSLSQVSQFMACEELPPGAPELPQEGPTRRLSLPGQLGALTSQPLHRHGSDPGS
Chain of Sodium channel protein type 5 subunit alpha/beta-1/beta-2 (Q14524 whole entry): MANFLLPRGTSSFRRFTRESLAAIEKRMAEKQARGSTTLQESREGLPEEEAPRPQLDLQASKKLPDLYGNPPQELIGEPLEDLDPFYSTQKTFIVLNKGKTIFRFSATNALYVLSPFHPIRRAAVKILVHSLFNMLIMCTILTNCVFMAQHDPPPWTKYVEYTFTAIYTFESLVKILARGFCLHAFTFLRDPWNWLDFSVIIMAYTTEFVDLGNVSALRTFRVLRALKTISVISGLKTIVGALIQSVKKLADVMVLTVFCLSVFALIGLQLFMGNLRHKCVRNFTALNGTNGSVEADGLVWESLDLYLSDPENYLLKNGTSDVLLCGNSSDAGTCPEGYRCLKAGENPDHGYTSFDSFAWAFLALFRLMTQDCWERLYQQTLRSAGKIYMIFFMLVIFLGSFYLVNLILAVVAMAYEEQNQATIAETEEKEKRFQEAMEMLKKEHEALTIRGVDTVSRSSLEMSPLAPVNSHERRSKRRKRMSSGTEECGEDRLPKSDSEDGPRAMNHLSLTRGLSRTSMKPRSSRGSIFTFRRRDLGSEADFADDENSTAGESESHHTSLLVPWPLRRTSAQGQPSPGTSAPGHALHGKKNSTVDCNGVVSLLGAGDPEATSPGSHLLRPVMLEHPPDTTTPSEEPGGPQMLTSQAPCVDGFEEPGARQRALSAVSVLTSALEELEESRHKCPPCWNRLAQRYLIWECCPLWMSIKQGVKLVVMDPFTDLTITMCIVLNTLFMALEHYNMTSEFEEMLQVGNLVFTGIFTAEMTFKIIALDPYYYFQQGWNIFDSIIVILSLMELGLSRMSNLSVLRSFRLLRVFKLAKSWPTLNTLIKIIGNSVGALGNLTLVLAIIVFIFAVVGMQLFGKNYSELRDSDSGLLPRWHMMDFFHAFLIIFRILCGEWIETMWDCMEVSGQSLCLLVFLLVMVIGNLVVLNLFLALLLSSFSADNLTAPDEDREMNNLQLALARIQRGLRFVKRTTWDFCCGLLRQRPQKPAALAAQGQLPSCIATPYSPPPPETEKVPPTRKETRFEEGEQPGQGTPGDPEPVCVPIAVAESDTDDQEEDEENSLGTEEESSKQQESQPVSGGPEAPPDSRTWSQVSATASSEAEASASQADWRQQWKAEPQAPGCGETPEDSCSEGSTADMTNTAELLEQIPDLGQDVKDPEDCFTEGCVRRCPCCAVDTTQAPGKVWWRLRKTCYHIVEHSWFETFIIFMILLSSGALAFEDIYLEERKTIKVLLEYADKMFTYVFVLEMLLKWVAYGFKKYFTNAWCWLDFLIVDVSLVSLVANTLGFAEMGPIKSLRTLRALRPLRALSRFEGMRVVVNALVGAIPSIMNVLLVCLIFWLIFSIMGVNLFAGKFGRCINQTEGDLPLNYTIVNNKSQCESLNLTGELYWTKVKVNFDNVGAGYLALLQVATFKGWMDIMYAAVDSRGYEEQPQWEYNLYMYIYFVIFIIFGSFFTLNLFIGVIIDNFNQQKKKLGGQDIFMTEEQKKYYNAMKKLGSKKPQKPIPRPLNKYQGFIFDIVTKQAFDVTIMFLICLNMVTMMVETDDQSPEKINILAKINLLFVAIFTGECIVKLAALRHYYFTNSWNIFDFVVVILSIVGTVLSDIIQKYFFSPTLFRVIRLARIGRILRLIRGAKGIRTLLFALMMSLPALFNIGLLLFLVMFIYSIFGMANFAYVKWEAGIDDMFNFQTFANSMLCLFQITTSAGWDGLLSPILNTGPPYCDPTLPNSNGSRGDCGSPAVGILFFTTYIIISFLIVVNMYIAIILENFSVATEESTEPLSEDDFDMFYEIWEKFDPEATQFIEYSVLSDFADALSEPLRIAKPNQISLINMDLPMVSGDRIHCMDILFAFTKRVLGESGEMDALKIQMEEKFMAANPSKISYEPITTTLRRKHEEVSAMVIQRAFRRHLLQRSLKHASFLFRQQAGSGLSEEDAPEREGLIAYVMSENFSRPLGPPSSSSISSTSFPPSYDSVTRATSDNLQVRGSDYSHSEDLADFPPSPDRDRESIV
Chain of Sodium channel protein type 5 subunit alpha/beta-1/beta-2 (O60939 whole entry, further chain): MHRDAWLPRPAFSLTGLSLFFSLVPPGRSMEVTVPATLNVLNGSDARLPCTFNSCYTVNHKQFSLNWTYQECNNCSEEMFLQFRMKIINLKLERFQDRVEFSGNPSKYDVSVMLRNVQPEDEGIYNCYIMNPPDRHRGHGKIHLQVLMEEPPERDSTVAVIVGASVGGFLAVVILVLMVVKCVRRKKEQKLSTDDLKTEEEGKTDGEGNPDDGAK
Chain of Sodium channel protein type 5 subunit alpha/beta-1/beta-2 (Q07699 whole entry, further chain): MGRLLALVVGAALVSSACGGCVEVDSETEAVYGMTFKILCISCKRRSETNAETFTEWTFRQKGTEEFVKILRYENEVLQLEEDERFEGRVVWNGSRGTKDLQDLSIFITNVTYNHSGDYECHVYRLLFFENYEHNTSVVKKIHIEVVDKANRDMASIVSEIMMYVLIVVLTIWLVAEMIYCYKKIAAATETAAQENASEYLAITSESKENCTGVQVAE
Chain of Cytochrome P450 2D6 (P10635 whole entry): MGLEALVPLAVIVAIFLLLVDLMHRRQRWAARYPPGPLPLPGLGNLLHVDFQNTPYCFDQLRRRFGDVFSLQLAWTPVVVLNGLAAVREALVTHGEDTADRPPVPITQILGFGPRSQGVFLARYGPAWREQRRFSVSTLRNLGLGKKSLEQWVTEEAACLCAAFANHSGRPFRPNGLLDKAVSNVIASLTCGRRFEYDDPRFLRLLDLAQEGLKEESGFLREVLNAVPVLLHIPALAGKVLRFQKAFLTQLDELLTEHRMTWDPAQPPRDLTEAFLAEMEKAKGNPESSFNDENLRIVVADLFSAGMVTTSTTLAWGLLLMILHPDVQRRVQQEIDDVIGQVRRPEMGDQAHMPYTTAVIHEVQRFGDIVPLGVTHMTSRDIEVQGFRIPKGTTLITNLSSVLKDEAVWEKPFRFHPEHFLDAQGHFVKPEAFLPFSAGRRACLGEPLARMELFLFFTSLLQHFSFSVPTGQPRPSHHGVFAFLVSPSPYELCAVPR
Chain of Cytochrome P450 3A4 (P08684 whole entry): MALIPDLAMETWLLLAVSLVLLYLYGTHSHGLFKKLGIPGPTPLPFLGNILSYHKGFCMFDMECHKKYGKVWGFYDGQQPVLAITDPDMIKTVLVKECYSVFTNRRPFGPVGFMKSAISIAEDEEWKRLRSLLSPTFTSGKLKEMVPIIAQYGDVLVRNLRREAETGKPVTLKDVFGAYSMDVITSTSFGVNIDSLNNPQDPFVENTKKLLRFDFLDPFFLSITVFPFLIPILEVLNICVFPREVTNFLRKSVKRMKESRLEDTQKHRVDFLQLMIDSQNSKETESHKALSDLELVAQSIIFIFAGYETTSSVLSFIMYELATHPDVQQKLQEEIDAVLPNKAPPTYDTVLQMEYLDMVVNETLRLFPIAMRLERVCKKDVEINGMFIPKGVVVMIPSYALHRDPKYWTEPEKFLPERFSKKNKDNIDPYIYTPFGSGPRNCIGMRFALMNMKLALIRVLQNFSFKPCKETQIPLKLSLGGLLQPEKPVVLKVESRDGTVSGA

Cc1cn(-c2cncc(C(F)(F)F)c2)c2ccc(C(=O)NS(=O)(=O)C3CC3)cc12
Vd [1]: 0.81 L/kg | solubility thermodynamic at 4 h [2]: 130 µM (≈ 55 µg/mL) | Activity [3]: Active | pIC50 [4]: 7.21 | Activity [5]: inactive | fraction unbound [6]: 0.005 | inhibition (INH) [7]: Not Active | inhibition (INH) [8]: Not Active | Activity [9]: inactive | Ratio [10]: 0.2 | Tmax [11]: 3.3 h | inhibition (INH) [12]: Not Active | inhibition (INH) [13]: Not Active | half-life [14]: 17 h | Ratio IC50 [15]: 440 | logD [16]: 1 | Cmax [17]: 2300 nM | pIC50 [18]: 7.82 | bioavailability [19]: 117% | inhibition at 100 µM [20]: 6.9% | Activity [21]: Not Active | AUC(0-t) [22]: 41.5 µM·h | pIC50 [23]: 5.18 | clearance [24]: 1.01 mL/min/kg | Activity [25]: Active | pIC50 [26]: 4.85 | Ratio IC50 [27]: 930

— ChEMBL document CHEMBL5247677, “N-Aryl Indoles as a Novel Class of Potent NaV1.7 Inhibitors” (ACS Med Chem Lett, 2023)
